Data published in the supplement of paper PMC10307832.

What was measured:
Assay in all cases: relative viability (nuclei count vs DMSO), 5 days (fraction); higher = more cells survive
[1] = compound: C1CCC(CC1)N(CCNCCC2=C3C(=C(C=C2)O)NC(=O)CO3)C(=O)CCNCCC4=CC(=C(C=C4)Cl)Cl [AZ505] + COc1cccc2cc(-c3nc([C@H]4CC[C@H](C(=O)O)CC4)n4ncnc(N)c34)[nH]c12 [OSI-027] (partner 0.5 µM)
In short: (§1)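 Lung cancer cell lines in 1536-well plates were dosed by pin tool the day after seeding, either with one drug alone or with a fixed anchor-drug dose plus five library-drug doses (not always all listed) in √10 steps. After 5 days, cells were fixed and their nuclei stained in one step (final 0.05% Triton X-100, 1% formaldehyde, 1 ug/ml Hoechst), then counted on 4× images. Relative viability is the nuclei count in treated wells divided by that in vehicle wells. Values are medians of duplicate plates.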

[2] = compound: C1CCC(CC1)N(CCNCCC2=C3C(=C(C=C2)O)NC(=O)CO3)C(=O)CCNCCC4=CC(=C(C=C4)Cl)Cl [AZ505] + CS(=O)(=O)N1CCN(Cc2cc3nc(-c4cccc5[nH]ncc45)nc(N4CCOCC4)c3s2)CC1 [Pictilisib] (partner 1 µM)
In short: as §1

[3] = compound: Cn1c(=O)n(-c2ccc(C(C)(C)C#N)cc2)c2c3cc(-c4cnc5ccccc5c4)ccc3ncc21 [Dactolisib] + CS(=O)(=O)CCNCc1ccc(-c2ccc3ncnc(Nc4ccc(OCc5cccc(F)c5)c(Cl)c4)c3c2)o1 [Lapatinib] (partner 2 µM)
In short: as §1

[4] = compound: Cn1c(=O)n(-c2ccc(C(C)(C)C#N)cc2)c2c3cc(-c4cnc5ccccc5c4)ccc3ncc21 [Dactolisib] + Cc1nc(Nc2ncc(C(=O)Nc3c(C)cccc3Cl)s2)cc(N2CCN(CCO)CC2)n1 [Dasatinib] (partner 0.075 µM)
In short: as §1

Row | Cell Line | relative viability ([1]; first compound 0.08 µM) | relative viability ([1]; first compound 0.253 µM) | relative viability ([1]; first compound 0.8 µM) | relative viability ([1]; first compound 2.53 µM) | relative viability ([1]; first compound 8 µM) | relative viability ([2]; first compound 0.08 µM) | relative viability ([2]; first compound 0.253 µM) | relative viability ([2]; first compound 0.8 µM) | relative viability ([2]; first compound 2.53 µM) | relative viability ([2]; first compound 8 µM) | relative viability ([3]; first compound 0.002 µM) | relative viability ([3]; first compound 0.006325 µM) | relative viability ([3]; first compound 0.02 µM) | relative viability ([3]; first compound 0.06325 µM) | relative viability ([3]; first compound 0.2 µM) | relative viability ([4]; first compound 0.002 µM) | relative viability ([4]; first compound 0.006325 µM) | relative viability ([4]; first compound 0.02 µM) | relative viability ([4]; first compound 0.06325 µM) | relative viability ([4]; first compound 0.2 µM)
1 | NCI-H2009 | 0.615 | 0.591 | 0.582 | 0.539 | 0.59 | 0.633 | 0.703 | 0.688 | 0.486 | 0.696 | 1.1 | 1.01 | 0.95 | 0.9 | 0.327 | 0.3 | 0.283 | 0.291 | 0.194 | 0.154
2 | NCI-H2405 | 0.436 | 0.511 | 0.528 | 0.574 | 0.501 | 0.256 | 0.21 | 0.278 | 0.259 | 0.254 | 1.03 | 1.11 | 1.01 | 0.735 | 0.393 | 0.224 | 0.238 | 0.207 | 0.213 | 0.187
3 | NCI-H1755 | 0.763 | 0.73 | 0.643 | 0.742 | 0.691 | 0.347 | 0.331 | 0.333 | 0.42 | 0.431 | 1.07 | 1.03 | 1.06 | 0.852 | 0.73 | 0.392 | 0.401 | 0.379 | 0.412 | 0.278
4 | HCC-78 | 0.386 | 0.33 | 0.37 | 0.438 | 0.466 | – | 0.219 | 0.179 | 0.264 | 0.289 | 0.769 | 0.753 | 0.612 | 0.47 | 0.493 | 0.427 | 0.409 | 0.336 | 0.399 | 0.224
5 | LOU-NH91 | 0.634 | 0.674 | 0.638 | 0.672 | 0.656 | 0.493 | 0.512 | 0.537 | 0.452 | 0.531 | 0.725 | 0.782 | 0.666 | 0.567 | 0.51 | 0.533 | 0.591 | 0.504 | 0.438 | 0.351
6 | NCI-H3122 | 0.927 | 0.917 | 1.05 | 0.875 | 0.996 | 0.561 | 0.573 | 0.665 | 0.409 | 0.643 | 1.07 | 1.02 | 1.03 | 1.08 | 0.795 | 0.702 | 0.818 | 0.752 | 0.675 | 0.225
7 | HCC-827 | 0.691 | 0.844 | 0.753 | 0.846 | 0.847 | 0.944 | 0.963 | 1.1 | 0.999 | 0.953 | 0.209 | 0.206 | 0.201 | 0.172 | 0.196 | 0.28 | 0.331 | 0.301 | 0.238 | 0.207
8 | SW 1573 | 0.589 | 0.579 | 0.689 | 0.68 | 0.63 | 0.456 | 0.514 | 0.422 | 0.467 | 0.571 | 1.13 | 1.08 | 1.04 | 0.458 | 0.367 | 0.627 | 0.493 | 0.306 | 0.146 | 0.119
9 | NCI-H1975 | 0.636 | 0.724 | 0.804 | 0.82 | 0.812 | 0.264 | 0.303 | 0.267 | 0.277 | 0.283 | 0.796 | 0.767 | 0.643 | 0.327 | 0.284 | 0.35 | 0.305 | 0.246 | 0.167 | 0.135
10 | NCI-H1651 | 0.678 | 0.75 | 0.725 | 0.763 | 0.717 | 0.656 | 0.56 | 0.603 | 0.633 | 0.588 | 0.84 | 0.788 | 0.643 | 0.35 | 0.303 | 0.388 | 0.435 | 0.318 | 0.238 | 0.177
11 | LCLC-97TM1 | 0.389 | 0.335 | 0.495 | 0.395 | 0.644 | 0.233 | 0.171 | 0.273 | 0.144 | 0.15 | 0.926 | 0.558 | 0.842 | 0.269 | 0.317 | 0.811 | 0.85 | 0.858 | 0.853 | 0.741
12 | NCI-H727 | 0.388 | 0.576 | 0.517 | – | 0.651 | 0.327 | 0.313 | 0.468 | 0.274 | 0.47 | 0.753 | 0.648 | 0.994 | 0.363 | 0.345 | 0.384 | 0.445 | 0.461 | 0.3 | 0.257
13 | NCI-H1355 | 0.395 | 0.319 | 0.384 | 0.362 | 0.429 | 0.409 | 0.338 | 0.428 | 0.321 | 0.445 | 1.02 | 0.879 | 0.939 | 0.521 | 0.388 | 0.806 | 0.743 | 0.689 | 0.409 | 0.218
14 | HOP-62 | 0.708 | 0.838 | 0.801 | 0.895 | 0.826 | 0.557 | 0.678 | 0.829 | 0.407 | 0.647 | 1.28 | 1.04 | 0.891 | 0.756 | 0.667 | 0.637 | 0.578 | 0.625 | 0.349 | 0.277
15 | NCI-H2085 | 0.664 | 0.536 | 0.733 | 0.772 | 0.858 | 0.444 | 0.39 | 0.502 | 0.435 | 0.531 | 0.798 | 0.657 | 0.659 | 0.359 | 0.337 | 0.179 | 0.249 | 0.229 | 0.169 | 0.209
